Assay results from US20210330611A1, “THERAPY FOR NEUROLOGICAL DISEASES/DISORDERS” (priority 2020, published 2021).
Counter-ions that a name gives are not always drawn. Like-named read-outs stand apart in the source and are kept apart here.

How the values were obtained:
primary rat microglia [1] = conditions: rat
in vitro [2] = conditions: rat, Cell Toxicity IC50 (uM) [cFib assay]
[3] = system: fibrin- and LPS-induced microglia activation; assay: cells; format: cell-based, rat; conditions: for inhibition at 10 µM: Rattus norvegicus, Microglia
in vitro [4] = conditions: rat
primary rat microglia [5] = assay: Cell toxicity (dead cells, size <150 μm2) in LPS assay; conditions: read-out: Cell Toxicity IC50 (uM) [LPS assay]; LPS assay
[6] = system: fibrin-induced microglia activation; assay: Image-based assay of fibrin-induced microglia activation (HTS and dose response); format: cell-based, rat; conditions: for IC50 / inhibition at 10 µM: Rattus norvegicus, Microglia; for inhibition at 10 µM: primary microglia HTS, fibrin stimulation, increased cell size (>800 μm^2) as marker of activation, read-out: Fibrin % inhibition
[7] = system: LPS-induced microglia activation; assay: Image-based assay of LPS-induced microglia activation (HTS and dose response); format: cell-based, rat; conditions: Rattus norvegicus, Microglia; for inhibition at 10 µM: primary microglia HTS, LPS stimulation, increased cell size (>800 μm^2) as marker of activation, read-out: LPS % inhibition
primary rat microglia [8] = conditions: rat; remark: listed apart in the source
[9] = HTS of 1907 compounds, quadrant by fibrin and LPS inhibition
[10] = Table 3, read-out: Cherry-picked Hit (Suppl. Table 7)
[11] = HTS hit classification, read-out: Hit
[12] = quadrant by fibrin and LPS inhibition in HTS of 1907 compounds
[13] = 48 h, Table 1, dose response 0.001-20 μM, triplicates, primary rat microglia, 48 h, read-out: Fibrin IC50
[14] = Table 3, read-out: Fibrin IC50 (uM) (Suppl. Table 7)
[15] = dose response, fibrin-induced microglia activation, read-out: Fibrin IC50
[16] = fibrin-induced microglia activation, dose response, read-out: Fibrin IC50 (uM) (Suppl. Table 7)
[17] = 48 h, Table 1, dose response 0.001-20 μM, triplicates, primary rat microglia, 48 h, read-out: LPS IC50
[18] = LPS-induced microglia activation, dose response, read-out: LPS IC50 (uM) (Suppl. Table 7)
[19] = Table 3, read-out: LPS IC50 (uM) (Suppl. Table 7)
[20] = dose response, LPS-induced microglia activation, read-out: LPS IC50
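Throughout, for Fibrin % cell toxicity: share of dead cells sized under 150 µm2 at 10 µM in fibrin-stimulated microglia HTS.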

SMILES | LPS % cell toxicity (primary rat microglia [1]) [%] | IC50 (in vitro [2]; Table 3) [µM] | IC50 (in vitro [2]; cFib assay) [µM] | Quadrant (FIG. 5b) [3, 9] | inhibition at 10 µM [3, 10] [%] | inhibition at 10 µM [3, 11] [%] | Quadrant (FIG. 5b) ([3]; Table 1, screen at 10 μM) | Quadrant (FIG. 5b) ([3]; Table 3, screen at 10 μM) | Quadrant (FIG. 5b) [3, 12] | IC50 (in vitro [4]) [nM] | IC50 (primary rat microglia [5]) [µM] | IC50 [6, 13] [µM] | IC50 [6, 14] [µM] | IC50 [6, 15] [µM] | IC50 [6, 16] [µM] | inhibition at 10 µM [6] [%] | IC50 [7, 17] [µM] | inhibition at 10 µM ([7]; 48 h) [%] | IC50 [7, 18] [µM] | IC50 [7, 19] [µM] | also measured
O=c1[nH]cc(F)c(=O)[nH]1 [Fluorouracil, reference compound] | 1 | > 20 | > 20 | Q3 | > 50 | > 50 | Q3 | Q3 | Q3 | > 20000 | > 20 | 7 | 7 | 7 | 7 | 56 | > 20 | 40 | > 20 | > 20 | Fibrin Selectivity [6]: 3; Fibrin Selectivity (LOG10) [6]: 0.44; IC50 [7, 20]: > 20 µM; Fibrin % cell toxicity (primary rat microglia [8]): 1%
C[C@H]1C[C@@H]2[C@H]([C@@H](O)C[C@@]3(C)[C@H]2CC[C@]3(O)C(=O)CO)[C@@]2(C)C=CC(=O)C=C12 [Methylprednisolone, reference compound] | 2 | > 20 | > 20 | Q2 | > 50 | > 50 | Q2 | Q2 | Q2 | > 20000 | > 20 | < 0.001 | < 0.001 | < 0.001 | < 0.001 | 110 | 0.02 | 86 | 0.02 | 0.02 | Quadrant (FIG. 5b) ([3]; Table 2, screen at 10 μM): Q2; IC50 ([6]; Table 7, read-out: fib_IC50): 0.003 µM; IC50 ([7]; Table 7, read-out: LPS_IC50): 0.002 µM; IC50 [7, 20]: 0.02 µM; Fibrin % cell toxicity (primary rat microglia [8]): 3%
O=C(NC(Cc1cc(=O)[nH]c2ccccc12)C(=O)O)c1ccc(Cl)cc1 (centres unmarked) [Rebamipide, reference compound] | 2 | > 20 | > 20 | Q2 | > 50 | > 50 | Q2 | Q2 | Q2 | > 20000 | > 20 | 2 | 2 | 2 | 2 | 65 | 11 | 72 | 11 | 11 | Fibrin Selectivity [6]: 6; Fibrin Selectivity (LOG10) [6]: 0.80; IC50 [7, 20]: 11 µM; Fibrin % cell toxicity (primary rat microglia [8]): 1%
CC[C@]1(O)C[C@@H]2CN(CCc3c([nH]c4ccccc34)[C@@](C(=O)OC)(c3cc4c(cc3OC)N(C)[C@H]3[C@@](O)(C(=O)OC)[C@H](OC(C)=O)[C@]5(CC)C=CCN6CC[C@]43[C@@H]65)C2)C1 [Vinblastine sulfate, reference compound] | 8 | > 20 | > 20 | Q2 | > 50 | > 50 | Q2 | Q2 | Q2 | > 20000 | > 20 | 0.02 | 0.02 | 0.02 | 0.02 | 106 | 0.2 | 108 | 0.2 | 0.2 | Quadrant (FIG. 5b) ([3]; Table 2, screen at 10 μM): Q2; Activity ([3]; Table 7, fib = fibrin, LPS, tox = toxicity): fib/LPS; Fibrin Selectivity [6]: 11; Fibrin Selectivity (LOG10) [6]: 1.05; IC50 ([6]; Table 7, read-out: fib_IC50): 1.39 µM; IC50 ([7]; Table 7, read-out: LPS_IC50): 0.628 µM; IC50 [7, 20]: 0.2 µM; Fibrin % cell toxicity (primary rat microglia [8]): 2%
